Measurements from patent EP0741188A2, “Single chain insulin with high bioactivity” (ELI LILLY AND COMPANY, priority 1995, dated 1996).

What was measured:
insulin receptor = test: Insulin assay: displacement of [125I] ligand from human placental membranes; format: binding; details: relative to human insulin = 100, human placental membrane protein, 24 hours at 4°C, from EC50 values of displacement curves
Experimental: (§1) Measurements of insulin and IGF-1 activities were accomplished in substantial accordance with the teaching of Gruppuso, et al. (1988) J. of Clin. Endocrin. and Metab. 67:194-197. Briefly, 30-50 µg of human placental membrane protein was incubated with approximately 10 femtomoles of [^125I] ligand in a final volume of 500 µl of 100 mM HEPES, pH 7.8, 120mM NaCl, 5mM KCl, 1.2mM MgSO4, 8mM glucose and 0.25% BSA for 24 hours at 4°C. Membranes were collected on glass fiber filters pre-treated with 0.1% polyethyleneimine by using a cell harvester (Skatron, Lier, Norway). Binding data were analyzed by fitting displacement curves to a four parameter model employing Prefit/Allfit® software for the determination of EC50 values.

IGF-1 receptor = test: IGF-1 assay: displacement of [125I] ligand from human placental membranes; format: binding; details: relative to IGF-1 = 100, human placental membrane protein, 24 hours at 4°C, from EC50 values of displacement curves
Experimental: as §1

bCa: single-chain human insulin B-chain and A-chain joined by Bridging Peptide GLY-TYR-GLY-SER-SER-SER-ARG-ARG-ALA-PRO-GLN-THR; made by solid-phase synthesis
%Insulin Activity (insulin receptor): 34%
%IGF-1 Activity (IGF-1 receptor): 23%
